US9918470B2, “Pesticidal mixtures” (Syngenta Participations AG, priority 2011, dated 2018)

How the values were obtained:
[1] = system: Heliothis virescens (Tobacco Budworm); experiment: Heliothis virescens (Tobacco Budworm): eggs on artificial diet in 24-well plate, larval mortality after 4 days; format: in vivo
Procedure: Heliothis virescens (Tobacco Budworm)
Eggs (0-24 h old) are placed in 24-well microtiter plate on artificial diet and treated with test solutions (DMSO) by pipetting. After an incubation period of 4 days, samples are checked for larval mortality.
(§1) Columns 4 and 5 show the control observed from the compounds alone. […] When a compound applied alone gave no control at a particular rate, it is assumed that lower rates of that compound alone also give no control. DMET=deltamethrin, SPAT=spirotetramat, IMID=imidacloprid, B15=compound 15 in Table B.

[2] = system: Tetranychus urticae (Two-Spotted Spider Mite); experiment: Tetranychus urticae (Two-Spotted Spider Mite): sprayed bean leaf discs, mobile stages mortality after 8 days; format: in vivo
Source text: Tetranychus urticae (Two-Spotted Spider Mite)
Bean leaf discs on agar in 24-well microtiter plates are sprayed with test solutions (DMSO). After drying, the leaf discs are infested with mite populations of mixed ages. 8 days later, discs are checked for mobile stages (I removed “mixed population”) mortality.
as §1

## CC1(C)[C@H](C(=O)O[C@H](C#N)c2cccc(Oc3ccccc3)c2)[C@@H]1C=C(Br)Br [DMET, deltamethrin]
[1]; DMET alone 0.0062 ppm
  DMET observed control %: 0%
[1]; DMET alone 0.0125 ppm
  DMET observed control %: 0%
[1]; DMET alone 0.025 ppm
  DMET observed control %: 0%
[1]; DMET alone 0.05 ppm
  DMET observed control %: 0%
[1]; DMET alone 0.1 ppm
  DMET observed control %: 0%
[1]; DMET alone 0.2 ppm
  DMET observed control %: 0%
[1]; DMET alone 0.4 ppm
  DMET observed control %: 0%
[1]; DMET alone 0.8 ppm
  DMET observed control %: 0%

## CC(NC(=O)C1CC1)c1ccc(N2CCC(c3cc(C(F)(F)F)cc(C(F)(F)F)c3)(C(F)(F)F)C2)cc1 (mixture of isomers) [Compound B15]
[1]; B15 alone 0.05 ppm (Table 2)
  B15 observed control %: 0%
[1]; B15 alone 0.1 ppm (Table 1)
  B15 observed control %: 55%
[1]; B15 alone 0.1 ppm (Table 2)
  B15 observed control %: 0%
[1]; B15 alone 0.2 ppm (Table 1)
  B15 observed control %: 75%
[1]; B15 alone 0.2 ppm (Table 2)
  B15 observed control %: 85%
[1]; B15 alone 0.4 ppm (Table 1)
  B15 observed control %: 75%
[1]; B15 alone 0.4 ppm (Table 2)
  B15 observed control %: 90%
[1]; B15 alone 0.8 ppm (Table 1)
  B15 observed control %: 85%
[1]; B15 alone 0.8 ppm (Table 2)
  B15 observed control %: 90%
[1]; B15 alone 1.6 ppm (Table 1)
  B15 observed control %: 95%
[2]; B15 alone 0.187 ppm
  B15 observed control %: 0%
[2]; B15 alone 0.375 ppm
  B15 observed control %: 0%
[2]; B15 alone 0.75 ppm
  B15 observed control %: 0%
[2]; B15 alone 1.5 ppm
  B15 observed control %: 30%

## O=[N+]([O-])NC1=NCCN1Cc1ccc(Cl)nc1 [IMID, imidacloprid]
[2]; IMID alone 12.5 ppm
  IMID observed control %: 0%
[2]; IMID alone 25 ppm
  IMID observed control %: 0%
[2]; IMID alone 50 ppm
  IMID observed control %: 0%
[2]; IMID alone 100 ppm
  IMID observed control %: 0%
[2]; IMID alone 200 ppm
  IMID observed control %: 0%
[2]; IMID alone 400 ppm
  IMID observed control %: 0%

## CCOC(=O)OC1=C(c2cc(C)ccc2C)C(=O)N[C@]12CC[C@@H](OC)CC2 [SPAT, spirotetramat]
[1]; SPAT alone 6.25 ppm
  SPAT observed control %: 0%
[1]; SPAT alone 12.5 ppm
  SPAT observed control %: 0%
[1]; SPAT alone 25 ppm
  SPAT observed control %: 0%
[1]; SPAT alone 50 ppm
  SPAT observed control %: 0%
[1]; SPAT alone 100 ppm
  SPAT observed control %: 0%
[1]; SPAT alone 200 ppm
  SPAT observed control %: 55%
